Experimental data from patent US10010539B2, “Pyrazole, triazole and tetrazole orexin receptor antagonists” (MERCK SHARP & DOHME CORP., priority 2014, dated 2018).
pIC50: −log10 of the molar value.

Tests used:
human orexin-2 receptor = human orexin-2 receptor (Homo sapiens (Human), UniProt O43614); assay: FLIPR Ca2+ Flux Assay, orexin-2 receptor (hOX2R FLIPR); assay type: cell-based; details: CHO cells expressing the human orexin-2 receptor; agonist 70 pM Ala-6,12 human orexin-A
Procedure, shortened: (§1)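 Fluorescence peaks, recorded at 1 s intervals for 5 min, were normalised to the response to 70 pM Ala-6,12 orexin-A alone and converted to IC50 values. Cells were CHO lines carrying rat orexin-1 or human orexin-2 receptor, Fluo-4AM loaded and exposed to compound for 5 min first.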

[1] = molecular target: hOXIR (orexin-1 receptor) (Homo sapiens, UniProt O43613); assay: FLIPR Ca2+ Flux Assay, orexin-1 receptor (hOXIR FLIPR); assay type: cell-based; details: CHO cells expressing the orexin-1 receptor (method text: rat; table head: hOXIR); agonist 70 pM Ala-6,12 human orexin-A
Procedure, shortened: as §1

Chain of human orexin-2 receptor (O43614 whole entry): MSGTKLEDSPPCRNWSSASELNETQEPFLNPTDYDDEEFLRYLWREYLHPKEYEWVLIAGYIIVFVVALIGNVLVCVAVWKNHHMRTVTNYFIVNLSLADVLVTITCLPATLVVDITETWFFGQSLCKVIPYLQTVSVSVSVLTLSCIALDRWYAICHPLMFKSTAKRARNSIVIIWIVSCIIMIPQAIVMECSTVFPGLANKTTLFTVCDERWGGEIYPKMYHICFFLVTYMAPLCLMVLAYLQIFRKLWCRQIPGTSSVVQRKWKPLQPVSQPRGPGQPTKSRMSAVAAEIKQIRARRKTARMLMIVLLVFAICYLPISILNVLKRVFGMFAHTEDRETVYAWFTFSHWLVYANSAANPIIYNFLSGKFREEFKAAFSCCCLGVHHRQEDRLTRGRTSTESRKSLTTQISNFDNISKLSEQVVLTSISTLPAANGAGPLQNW

SMILES	pIC50 (human orexin-2 receptor)	pIC50 [1]
CCOc1ccccc1C(=O)N1C[C@H](n2cc(C(C)(C)O)cn2)CC[C@H]1C [Example 77, 2-(1-{(3R,6R)-1-[(2-Ethoxyphenyl)carbonyl]-6-methylpiperidin-3-yl}-1H-pyrazol-4-yl)propan-2-ol]	6.92	< 5.00
Cc1noc(-c2c(F)cccc2C(=O)N2C[C@H](n3ncc(C(C)(C)O)n3)CC[C@H]2C)n1 [Example 48, 2-{2-[(3R,6R)-1-{[3-fluoro-2-(3-methyl-1,2,4-oxadiazol-5-yl)phenyl]carbonyl}-6-methylpiperidin-3-yl]-2H-1,2,3-triazol-4-yl}propan-2-ol]	6.86	< 5.00
C[C@@H]1CC[C@@H](n2ncc(C(C)(C)O)n2)CN1C(=O)c1ccccc1CC(F)(F)F [Example 9, ((2R,5R)-5-(4-(2-Hydroxypropan-2-yl)-2H-1,2,3-triazol-2-yl)-2-methylpiperidin-1-yl)(2-(2,2,2-trifluoroethyl)phenyl)methanone]	7.52	< 5.00
C[C@@H]1CC[C@@H](n2cc(C(C)(C)O)cn2)CN1C(=O)c1cccnc1OCC(F)F [Example 98, 2-{1-[(3R,6R)-1-{[2-(2,2-Difluoroethoxy)pyridin-3-yl]carbonyl}-6-methylpiperidin-3-yl]-1H-pyrazol-4-yl}propan-2-ol]	7.23	< 5.00
C[C@@H]1CC[C@@H](n2ncc(C(C)(C)O)n2)CN1C(=O)c1cccnc1OC(F)F [Example 7, (2-(Difluoromethoxy)pyridin-3-yl)((2R,5R)-5-(4-(2-hydroxypropan-2-yl)-2H-1,2,3-triazol-2-yl)-2-methylpiperidin-1-yl)methanone]	7.29	< 5.00
CC(C)Oc1ccccc1C(=O)N1C[C@H](n2cc(C(C)(C)O)cn2)CC[C@H]1C [Example 81, 2-{1-[(3R,6R)-6-Methyl-1-{[2-(1-methylethoxy)phenyl]carbonyl}piperidin-3-yl]-1H-pyrazol-4-yl}propan-2-ol]	7.05	< 5.00
C[C@@H]1CC[C@@H](n2cc([C@H](O)C(F)(F)F)cn2)CN1C(=O)c1ccccc1-n1nccn1 [Example 103, (1S)-2,2,2-Trifluoro-1-{1-[(3R,6R)-6-methyl-1-{[2-(2H-1,2,3-triazol-2-yl)phenyl]carbonyl}piperidin-3-yl]-1H-pyrazol-4-yl}ethanol]	6.99	< 5.00
C[C@@H]1CC[C@@H](n2ncc(C(C)(C)O)n2)CN1C(=O)c1cccnc1OCC(F)F [Example 13, (2-(2,2-Difluoroethoxy)pyridin-3-yl)((2R,5R)-5-(4-(2-hydroxypropan-2-yl)-2H-1,2,3-triazol-2-yl)-2-methylpiperidin-1-yl)methanone]	7.84	< 5.00
COc1cccc(-n2nccn2)c1C(=O)N1C[C@H](n2ncc(C(C)(C)O)n2)CC[C@H]1C [Example 51, 2-{2-[(3R,6R)-1-{[2-methoxy-6-(2H-1,2,3-triazol-2-yl)phenyl]carbonyl}-6-methylpiperidin-3-yl]-2H-1,2,3-triazol-4-yl}propan-2-ol]	7.17	< 5.00
C[C@@H]1CC[C@@H](n2ncc(C(C)(C)O)n2)CN1C(=O)c1ccccc1OCC(F)(F)F [Example 16, ((2R,5R)-5-(4-(2-Hydroxypropan-2-yl)-2H-1,2,3-triazol-2-yl)-2-methylpiperidin-1-yl)(2-(2,2,2-trifluoroethoxy)phenyl)methanone]	7.64	< 5.00
Cc1c(C(C)(C)O)cnn1[C@@H]1CC[C@@H](C)N(C(=O)c2ccccc2-n2nccn2)C1 [Example 108, 2-{5-Methyl-1-[(3R,6R)-6-methyl-1-{[2-(2H-1,2,3-triazol-2-yl)phenyl]carbonyl}piperidin-3-yl]-1H-pyrazol-4-yl}propan-2-ol]	7.14	5.47
CCCc1ccccc1C(=O)N1C[C@H](n2ncc(C(C)(C)O)n2)CC[C@H]1C [Example 4, ((2R,5R)-5-(4-(2-Hydroxypropan-2-yl)-2H-1,2,3-triazol-2-yl)-2-methylpiperidin-1-yl)(2-propylphenyl)methanone]	7.80	5.09
Cc1nn([C@@H]2CC[C@@H](C)N(C(=O)c3ccccc3OC(F)(F)F)C2)nc1C(C)(C)O [Example 67, 2-{5-Methyl-2-[(3R,6R)-6-methyl-1-{[2-(trifluoromethoxy)phenyl]carbonyl}piperidin-3-yl]-2H-1,2,3-triazol-4-yl}propan-2-ol]	8.00	5.94
Cc1nn([C@@H]2CC[C@@H](C)N(C(=O)c3ccccc3-n3nccn3)C2)cc1C(C)(C)O [Example 107, 2-{3-Methyl-1-[(3R,6R)-6-methyl-1-{[2-(2H-1,2,3-triazol-2-yl)phenyl]carbonyl}piperidin-3-yl]-1H-pyrazol-4-yl}propan-2-ol]	7.86	6.47
Cc1nn([C@@H]2CC[C@@H](C)N(C(=O)c3ccccc3-n3cccn3)C2)nc1C(C)(C)O [Example 71, 2-{5-Methyl-2-[(3R,6R)-6-methyl-1-{[2-(1H-pyrazol-1-yl)phenyl]carbonyl}piperidin-3-yl]-2H-1,2,3-triazol-4-yl}propan-2-ol]	8.03	5.57
C[C@@H]1CC[C@@H](n2ncc(C(C)(C)O)n2)CN1C(=O)c1ccccc1OCC(F)F [Example 18, (2-(2,2-Difluoroethoxy)phenyl)((2R,5R)-5-(4-(2-hydroxypropan-2-yl)-2H-1,2,3-triazol-2-yl)-2-methylpiperidin-1-yl)methanone]	7.82	< 5.00
C[C@@H]1CC[C@@H](n2ncc(Br)n2)CN1C(=O)c1ccccc1-n1nccn1 [Example 29, (2-(2H-1,2,3-triazol-2-yl)phenyl)((2R,5R)-5-(4-bromo-2H-1,2,3-triazol-2-yl)-2-methylpiperidin-1-yl)methanone]	6.44	< 5.00
C[C@@H]1CC[C@@H](n2ncc(C(C)(C)O)n2)CN1C(=O)c1nccnc1-n1cccn1 [Example 43, 2-{2-[(3R,6R)-6-methyl-1-{[3-(1H-pyrazol-1-yl)pyrazin-2-yl]carbonyl}piperidin-3-yl]-2H-1,2,3-triazol-4-yl}propan-2-ol]	6.96	< 5.00
C[C@@H]1CC[C@@H](n2ncc(C(C)(C)O)n2)CN1C(=O)c1ccccc1-n1ncnn1 [Example 34, 2-{2-[(3R,6R)-6-methyl-1-{[2-(2H-tetrazol-2-yl)phenyl]carbonyl}piperidin-3-yl]-2H-1,2,3-triazol-4-yl}propan-2-ol]	7.43	< 5.00
Cc1cccc(C(=O)N2C[C@H](n3ncc(C(C)(C)O)n3)CC[C@H]2C)c1-n1nccn1 [Example 46]	7.25	< 5.00
C[C@@H]1CC[C@@H](n2ncc(C(C)(C)O)n2)CN1C(=O)c1ccccc1SC(F)(F)F [Example 11, 2-{2-[(3R,6R)-6-Methyl-1-({2-[(trifluoromethyl)sulfanyl]pheny}carbonyl)piperidin-3-yl]-2H-1,2,3-triazol-4-yl}propan-2-ol]	7.70	5.59
C[C@@H]1CC[C@@H](n2nnc(C(C)(C)O)n2)CN1C(=O)c1ccccc1-n1nccn1 [Example 74, 2-{2-[(3R,6R)-6-Methyl-1-{[2-(2H-1,2,3-triazol-2-yl)phenyl]carbonyl}piperidin-3-yl]-2H-tetrazol-5-yl}propan-2-ol]	7.35	< 5.00
